Values joined by “and” are separate entries in the source; they are usually repeats but may differ in a detail not shown here. Equal entries are not always repeated.
Assay: logP by HPLC on reversed-phase columns (C18), EEC Directive 79/831 Annex V.A8
Type: physicochemical
Conditions: HPLC reversed-phase C18, acidic range pH 2.7; Preparation Examples (intermediates)
Experimental: The logP values reported in the table above and in the Preparation Examples were determined in accordance with EEC Directive 79/831 Annex V.A8 by HPLC (High Performance Liquid Chromatography) on reversed-phase columns (C18), with the following methods:
The LC-MS determination in the acidic range is carried out at pH 2.7 using the mobile phases 0.1% aqueous formic acid and acetonitrile (contains 0.1% formic acid), linear gradient from 10% acetonitrile to 95% acetonitrile
Calibration was carried out using unbranched alkan-2-ones (having from 3 to 16 carbon atoms) with known logP values (the logP values were determined by the retention times using linear interpolation between two successive alkanones).
With “1-(3-Chloropyridin-2-yl)-3-{(E)-2-[5-(trifluoromethyl)-2H-tetrazol-2-yl]vinyl}-1H-pyrazole-5-carboxylic acid/1-(3-chloropyridin-2-yl)-3-{(E)-2-[5-(trifluoromethyl)-1H-tetrazol-1-yl]vinyl}-1H-pyrazole-5-carboxylic acid [Example No. XIV]” the logP was 2.79 and 2.86.

Same assay, conditions: pH 2.7, log P
In the case of `CNC(=O)c1cc(Br)cc(C)c1NC(=O)c1cc(C(=O)Nc2ccc(C(F)(F)F)cc2)nn1-c1ncccc1Cl` [Example 2], the chromatographic logP is reported as 3.53. In the case of `CNC(=O)c1cc(Cl)cc(C)c1NC(=O)c1cc(C(=O)Nc2ccc(C(F)(F)F)cc2)nn1-c1ncccc1Cl` [Example 5], the chromatographic logP is reported as 3.46. Compound `CNC(=O)c1cc(Cl)cc(C)c1NC(=O)c1cc(C(=O)Nc2cc(C(F)(F)F)cc(C(F)(F)F)c2)nn1-c1ncccc1Cl` [Example 6] has a chromatographic logP of 4.16. Compound `CNC(=O)c1cc(C#N)cc(C)c1NC(=O)c1cc(C#Cc2ccc(OC)cc2)nn1-c1ncccc1Cl` [Example 8] has a chromatographic logP of 3.11. For `Cc1cc(Cl)cc(C(N)=O)c1NC(=O)c1cc(C#Cc2ccc(OC(F)(F)F)cc2)nn1-c1ncccc1Cl` [Example 9], the chromatographic logP was 3.94. `Cc1cc(C#N)cc(C(=O)NC(C)(C)C)c1NC(=O)c1cc(C(=O)Cn2nnc(C(F)(F)F)n2)nn1-c1ncccc1Cl` [Example 16] gave a chromatographic logP of 3.66. Work on `CNC(=O)c1cc(Cl)cc(C)c1NC(=O)c1cc(N2CCN(Cc3ccc(Cl)nc3)C2=O)nn1-c1ncccc1Cl` [Example 28] yielded a chromatographic logP of 2.64. Work on `CNC(=O)c1cc(C#N)cc(C)c1NC(=O)c1cc(N2CCN(Cc3ccc(Cl)nc3)C2=O)nn1-c1ncccc1Cl` [Example 29] yielded a chromatographic logP of 2.31. For `Cc1cc(C#N)cc(C(=O)NC(C)(C)C)c1NC(=O)c1cc(N2CCN(Cc3ccc(Cl)nc3)C2=O)nn1-c1ncccc1Cl` [Example 30], the chromatographic logP was 3.02. `Cc1cc(Cl)cc(C(N)=O)c1NC(=O)c1cc(C(=O)C(=O)c2ccc(Cl)cc2Cl)nn1-c1ncccc1Cl` [Example 31] showed a chromatographic logP of 3.51. In the case of `CNC(=O)c1cc(Cl)cc(C)c1NC(=O)c1cc(CNS(=O)(=O)c2ccccc2Cl)nn1-c1ncccc1Cl` [Example 37], the chromatographic logP is reported as 2.58. Compound `Cc1cc(Cl)cc(C(=O)NC(C)C)c1NC(=O)c1cc(CNS(=O)(=O)c2ccccc2Cl)nn1-c1ncccc1Cl` [Example 38] has a chromatographic logP of 3.06. In the case of `Cc1cc(Cl)cc(C(=O)NC2CC2)c1NC(=O)c1cc(CNS(=O)(=O)c2ccccc2Cl)nn1-c1ncccc1Cl` [Example 39], the chromatographic logP is reported as 2.8. Work on `Cc1cc(Cl)cc(C(=O)NC(C)C)c1NC(=O)c1cc(CNS(=O)(=O)c2cccc(Cl)c2)nn1-c1ncccc1Cl` [Example 43] yielded a chromatographic logP of 3.25. `Cc1cc(Cl)cc(C(=O)NC(C)C)c1NC(=O)c1cc(CNS(=O)(=O)c2ccccc2)nn1-c1ncccc1Cl` [Example 44] showed a chromatographic logP of 2.84. `Cc1cc(Cl)cc(C(=O)NC(C)C)c1NC(=O)c1cc(CNS(=O)(=O)c2ccccc2C(F)(F)F)nn1-c1ncccc1Cl` [Example 45] showed a chromatographic logP of 3.26. In the case of `Cc1cc(Cl)cc(C(=O)NC(C)C)c1NC(=O)c1cc(CNS(=O)(=O)c2ccc(Cl)cc2)nn1-c1ncccc1Cl` [Example 47], the chromatographic logP is reported as 3.25. Compound `Cc1cc(Cl)cc(C(=O)NC(C)C)c1NC(=O)c1cc(CNS(=O)(=O)c2cccc(C(F)(F)F)c2)nn1-c1ncccc1Cl` [Example 48] has a chromatographic logP of 3.43. Compound `Cc1cc(Cl)cc(C(=O)NC(C)C)c1NC(=O)c1cc(CNS(=O)(=O)Cc2ccccc2C(F)(F)F)nn1-c1ncccc1Cl` [Example 49] has a chromatographic logP of 2.62. Work on `Cc1cc(Cl)cc(C(=O)NC(C)C)c1NC(=O)c1cc(CNS(=O)(=O)Cc2ccc(C(F)(F)F)cc2)nn1-c1ncccc1Cl` [Example 50] yielded a chromatographic logP of 2.28. In the case of `Cc1cc(Cl)cc(C(=O)NC(C)C)c1NC(=O)c1cc(CNS(=O)(=O)Cc2cccc(C(F)(F)F)c2)nn1-c1ncccc1Cl` [Example 51], the chromatographic logP is reported as 3.42. `CNC(=O)c1cc(C#N)cc(C)c1NC(=O)c1cc(Nc2cccc(C(F)(F)F)n2)nn1-c1ncccc1Cl` [Example 69] showed a chromatographic logP of 2.89. Compound `CNC(=O)c1cc(C#N)cc(C)c1NC(=O)c1cc(Nc2cc(C(F)(F)F)ccn2)nn1-c1ncccc1Cl` [Example 70] has a chromatographic logP of 2.76. Work on `Cc1cc(C#N)cc(C(=O)NC(C)C)c1NC(=O)c1cc(Nc2ccc(C(F)(F)F)c(C(F)(F)F)c2)nn1-c1ncccc1Cl` [Example 72] yielded a chromatographic logP of 3.91. `Cc1cc(C#N)cc(C(=O)NC(C)C)c1NC(=O)c1cc(Nc2cccc(C(F)(F)F)c2)nn1-c1ncccc1Cl` [Example 75] gave a chromatographic logP of 3.66.

Same assay, conditions: reversed-phase HPLC column (C18), pH 2.7, HPLC reversed-phase C18, acidic range pH 2.7, 0.1% aqueous formic acid/acetonitrile; table of compounds of formula (I); read-out: log P
`Cc1cc(Cl)cc(C(=O)NC(C)C)c1NC(=O)c1cc(C(=O)Nc2cc(C(F)(F)F)cc(C(F)(F)F)c2)nn1-c1ncccc1Cl` [Example 7] showed a chromatographic logP of 4.62. In the case of `CNC(=O)c1cc(C#N)cc(C)c1NC(=O)c1cc(N2CCN(c3cc(C(F)(F)F)cc(C(F)(F)F)c3)C2=O)nn1-c1ncccc1Cl` [Example 23], the chromatographic logP is reported as 4.08. With `Cc1cc(Cl)cc(C(=O)NC(C)(C)C)c1NC(=O)c1cc(N2CCN(c3cc(C(F)(F)F)cc(C(F)(F)F)c3)C2=O)nn1-c1ncccc1Cl` [Example 24] the chromatographic logP was 5.29. `Cc1cc(C#N)cc(C(=O)NC(C)(C)C)c1NC(=O)c1cc(N2CCN(c3cc(C(F)(F)F)cc(C(F)(F)F)c3)C2=O)nn1-c1ncccc1Cl` [Example 25] showed a chromatographic logP of 4.84. With `Cc1cc(Cl)cc(C(=O)NC(C)C)c1NC(=O)c1cc(N2CCN(c3cc(C(F)(F)F)cc(C(F)(F)F)c3)C2=O)nn1-c1ncccc1Cl` [Example 26] the chromatographic logP was 4.97. For `Cc1cc(C#N)cc(C(=O)NC(C)C)c1NC(=O)c1cc(N2CCN(c3cc(C(F)(F)F)cc(C(F)(F)F)c3)C2=O)nn1-c1ncccc1Cl` [Example 27], the chromatographic logP was 4.55. With `Cc1cc(Cl)cc(C(=O)NC(C)C2CC2)c1NC(=O)c1cc(CNS(=O)(=O)c2cc(C(F)(F)F)cc(C(F)(F)F)c2)nn1-c1ncccc1Cl` (centres unmarked) [Example 34] the chromatographic logP was 4.38. Work on `Cc1cc(Cl)cc(C(=O)NC(C)C)c1NC(=O)c1cc(CNS(=O)(=O)c2cc(C(F)(F)F)cc(C(F)(F)F)c2)nn1-c1ncccc1Cl` [Example 35] yielded a chromatographic logP of 4.1. Compound `CNC(=O)c1cc(Cl)cc(C)c1NC(=O)c1cc(CNS(=O)(=O)c2cc(C(F)(F)F)cc(C(F)(F)F)c2)nn1-c1ncccc1Cl` [Example 36] has a chromatographic logP of 3.62. `Cc1cc(Cl)cc(C(=O)NC(C)C)c1NC(=O)c1cc(CNS(=O)(=O)c2cc(C(F)(F)F)ccc2C(F)(F)F)nn1-c1ncccc1Cl` [Example 40] showed a chromatographic logP of 3.84. For `Cc1cc(Cl)cc(C(=O)NC(C)C)c1NC(=O)c1cc(CNS(=O)(=O)c2c(C(F)(F)F)cccc2C(F)(F)F)nn1-c1ncccc1Cl` [Example 41], the chromatographic logP was 3.63. `Cc1cc(Cl)cc(C(=O)NC(C)C)c1NC(=O)c1cc(CNS(=O)(=O)c2ccc(C(F)(F)F)cc2C(F)(F)F)nn1-c1ncccc1Cl` [Example 42] gave a chromatographic logP of 3.94. Compound `Cc1cc(Cl)cc(C(=O)NC(C)C)c1NC(=O)c1cc(CNS(=O)(=O)Cc2cc(C(F)(F)F)cc(C(F)(F)F)c2)nn1-c1ncccc1Cl` [Example 53] has a chromatographic logP of 3.95. `Cc1cc(Cl)cc(C(=O)NC(C)C)c1NC(=O)c1cc(CNS(=O)(=O)c2ccc(C(F)(F)F)c(C(F)(F)F)c2)nn1-c1ncccc1Cl` [Example 54] showed a chromatographic logP of 4. Compound `Cc1cc(Cl)cc(C(=O)NC(C)C)c1NC(=O)c1cc(CN(Cc2cc(C(F)(F)F)cc(C(F)(F)F)c2)S(C)(=O)=O)nn1-c1ncccc1Cl` [Example 57] has a chromatographic logP of 4.26. `Cc1cc(Cl)cc(C(=O)NC(C)C2CC2)c1NC(=O)c1cc(CN(Cc2cc(C(F)(F)F)cc(C(F)(F)F)c2)S(C)(=O)=O)nn1-c1ncccc1Cl` (centres unmarked) [Example 58] gave a chromatographic logP of 4.54. `Cc1cc(C#N)cc(C(=O)NC(C)C)c1NC(=O)c1cc(CN(Cc2cc(C(F)(F)F)cc(C(F)(F)F)c2)S(C)(=O)=O)nn1-c1ncccc1Cl` [Example 60] gave a chromatographic logP of 3.91. With `Cc1cc(C#N)cc(C(=O)NC(C)C2CC2)c1NC(=O)c1cc(CN(Cc2cc(C(F)(F)F)cc(C(F)(F)F)c2)S(C)(=O)=O)nn1-c1ncccc1Cl` (centres unmarked) [Example 61] the chromatographic logP was 4.12. `Cc1cc(C#N)cc(C(=O)NC2CC2)c1NC(=O)c1cc(CN(Cc2cc(C(F)(F)F)cc(C(F)(F)F)c2)S(C)(=O)=O)nn1-c1ncccc1Cl` [Example 62] gave a chromatographic logP of 3.64.

Same assay, conditions: reversed-phase HPLC column (C18), pH 2.7, HPLC reversed-phase C18, acidic range pH 2.7; Preparation Examples (intermediates); read-out: logP
In the case of `CN(Cc1cc(C(=O)O)n(-c2ncccc2Cl)n1)S(=O)(=O)Cc1cc(C(F)(F)F)cc(C(F)(F)F)c1` [Example No. III-1, 3-{[{[3,5-bis(trifluoromethyl)benzyl]sulphonyl}(methyl)amino]methyl}-1-(3-chloropyridin-2-yl)-1H-pyrazole-5-carboxylic acid], the chromatographic logP is reported as 3.07. `O=C(C(=O)c1ccc(Cl)cc1Cl)c1cc(C(=O)O)n(-c2ncccc2Cl)n1` [Example No. III-2, 1-(3-chloropyridin-2-yl)-3-[(2,4-dichlorophenyl)(oxo)acetyl]-1H-pyrazole-5-carboxylic acid] gave a chromatographic logP of 2.78. `O=C(O)c1cc(C#Cc2ccc(OC(F)(F)F)cc2)nn1-c1ncccc1Cl` [Example No. III-3, 1-(3-chloropyridin-2-yl)-3-{[4-(trifluoromethoxy)phenyl]ethynyl}-1H-pyrazole-5-carboxylic acid] gave a chromatographic logP of 3.36. `O=C(Cn1nnc(C(F)(F)F)n1)c1cc(C(=O)O)n(-c2ncccc2Cl)n1` [Example No. III-4, 1-(3-chloropyridin-2-yl)-3-{[5-(trifluoromethyl)-2H-tetrazol-2-yl]acetyl}-1H-pyrazole-5-carboxylic acid] gave a chromatographic logP of 2.25. `O=C(O)c1cc(N2CCN(c3cc(C(F)(F)F)cc(C(F)(F)F)c3)C2=O)nn1-c1ncccc1Cl` [Example No. III-5, 3-{3-[3,5-bis(trifluoromethyl)phenyl]-2-oxoimidazolidin-1-yl}-1-(3-chloropyridin-2-yl)-1H-pyrazole-5-carboxylic acid] showed a chromatographic logP of 3.47.

Reference: US8791139B2, “Anthranilic diamide derivatives” (Bayer Cropscience AG, priority 2010, dated 2014)
